{"source": "patent US20100331966A1", "about": "“BIOCORRODIBLE IMPLANT HAVING AN ACTIVE COATING” (priority 2009, published 2010)", "origin": "cited, not measured here", "test_system": "hyperlipidemic rabbits", "key": {"[1]": {"details": "hyperlipidemic rabbits, repeated administration"}}, "data": [{"substance": "hyaluronidase", "values": [{"measurement": "atheromatous vascular plaque", "setting": "[1]", "value": "significant decrease"}, {"measurement": "blood cholesterol", "setting": "[1]", "value": "lowering"}, {"measurement": "fibrin content", "setting": "[1]", "value": "lowering"}, {"measurement": "heparin content in the plasma", "setting": "[1]", "value": "increase"}, {"measurement": "vascular permeability in the tissue", "setting": "[1]", "value": "increased"}]}, {"substance": "hyaluronate lyase [bacteria hyaluronate lyase]", "values": [{"measurement": "plaque-loosening effect", "setting": "rabbit, in vivo", "value": "confirmed"}]}]}
